The values below come from patent US10392391B2 (Vertex Pharmaceuticals Incorporated, priority 2012, dated 2019).

pKi: −log10 of the molar value. Where two headings read alike, the source gives them in different places.

The target of the assay is ATR kinase (full-length ATR) (Homo sapiens (Human), UniProt Q13535). Nature of the assay: ATR inhibition assay (radioactive-phosphate incorporation). In kind it is biochemical. In short, it runs like this: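 Radiometric 33P incorporation by 5 nM full-length ATR into 800 μM target peptide with 10 μM [γ-33P]ATP, in 50 mM Tris/HCl pH 7.5, 10 mM MgCl2, 1 mM DTT, 7% DMSO, 25° C. Compound pre-incubated 10 minutes; reaction stopped after 24 hours, captured on phosphocellulose. Ki(app) from non-linear regression of initial rates.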

[1] abbreviates: Ki(app), 5 nM full-length ATR, 10 μM ATP, 25° C.

ATR kinase (full-length ATR), sequence (Q13535 whole entry): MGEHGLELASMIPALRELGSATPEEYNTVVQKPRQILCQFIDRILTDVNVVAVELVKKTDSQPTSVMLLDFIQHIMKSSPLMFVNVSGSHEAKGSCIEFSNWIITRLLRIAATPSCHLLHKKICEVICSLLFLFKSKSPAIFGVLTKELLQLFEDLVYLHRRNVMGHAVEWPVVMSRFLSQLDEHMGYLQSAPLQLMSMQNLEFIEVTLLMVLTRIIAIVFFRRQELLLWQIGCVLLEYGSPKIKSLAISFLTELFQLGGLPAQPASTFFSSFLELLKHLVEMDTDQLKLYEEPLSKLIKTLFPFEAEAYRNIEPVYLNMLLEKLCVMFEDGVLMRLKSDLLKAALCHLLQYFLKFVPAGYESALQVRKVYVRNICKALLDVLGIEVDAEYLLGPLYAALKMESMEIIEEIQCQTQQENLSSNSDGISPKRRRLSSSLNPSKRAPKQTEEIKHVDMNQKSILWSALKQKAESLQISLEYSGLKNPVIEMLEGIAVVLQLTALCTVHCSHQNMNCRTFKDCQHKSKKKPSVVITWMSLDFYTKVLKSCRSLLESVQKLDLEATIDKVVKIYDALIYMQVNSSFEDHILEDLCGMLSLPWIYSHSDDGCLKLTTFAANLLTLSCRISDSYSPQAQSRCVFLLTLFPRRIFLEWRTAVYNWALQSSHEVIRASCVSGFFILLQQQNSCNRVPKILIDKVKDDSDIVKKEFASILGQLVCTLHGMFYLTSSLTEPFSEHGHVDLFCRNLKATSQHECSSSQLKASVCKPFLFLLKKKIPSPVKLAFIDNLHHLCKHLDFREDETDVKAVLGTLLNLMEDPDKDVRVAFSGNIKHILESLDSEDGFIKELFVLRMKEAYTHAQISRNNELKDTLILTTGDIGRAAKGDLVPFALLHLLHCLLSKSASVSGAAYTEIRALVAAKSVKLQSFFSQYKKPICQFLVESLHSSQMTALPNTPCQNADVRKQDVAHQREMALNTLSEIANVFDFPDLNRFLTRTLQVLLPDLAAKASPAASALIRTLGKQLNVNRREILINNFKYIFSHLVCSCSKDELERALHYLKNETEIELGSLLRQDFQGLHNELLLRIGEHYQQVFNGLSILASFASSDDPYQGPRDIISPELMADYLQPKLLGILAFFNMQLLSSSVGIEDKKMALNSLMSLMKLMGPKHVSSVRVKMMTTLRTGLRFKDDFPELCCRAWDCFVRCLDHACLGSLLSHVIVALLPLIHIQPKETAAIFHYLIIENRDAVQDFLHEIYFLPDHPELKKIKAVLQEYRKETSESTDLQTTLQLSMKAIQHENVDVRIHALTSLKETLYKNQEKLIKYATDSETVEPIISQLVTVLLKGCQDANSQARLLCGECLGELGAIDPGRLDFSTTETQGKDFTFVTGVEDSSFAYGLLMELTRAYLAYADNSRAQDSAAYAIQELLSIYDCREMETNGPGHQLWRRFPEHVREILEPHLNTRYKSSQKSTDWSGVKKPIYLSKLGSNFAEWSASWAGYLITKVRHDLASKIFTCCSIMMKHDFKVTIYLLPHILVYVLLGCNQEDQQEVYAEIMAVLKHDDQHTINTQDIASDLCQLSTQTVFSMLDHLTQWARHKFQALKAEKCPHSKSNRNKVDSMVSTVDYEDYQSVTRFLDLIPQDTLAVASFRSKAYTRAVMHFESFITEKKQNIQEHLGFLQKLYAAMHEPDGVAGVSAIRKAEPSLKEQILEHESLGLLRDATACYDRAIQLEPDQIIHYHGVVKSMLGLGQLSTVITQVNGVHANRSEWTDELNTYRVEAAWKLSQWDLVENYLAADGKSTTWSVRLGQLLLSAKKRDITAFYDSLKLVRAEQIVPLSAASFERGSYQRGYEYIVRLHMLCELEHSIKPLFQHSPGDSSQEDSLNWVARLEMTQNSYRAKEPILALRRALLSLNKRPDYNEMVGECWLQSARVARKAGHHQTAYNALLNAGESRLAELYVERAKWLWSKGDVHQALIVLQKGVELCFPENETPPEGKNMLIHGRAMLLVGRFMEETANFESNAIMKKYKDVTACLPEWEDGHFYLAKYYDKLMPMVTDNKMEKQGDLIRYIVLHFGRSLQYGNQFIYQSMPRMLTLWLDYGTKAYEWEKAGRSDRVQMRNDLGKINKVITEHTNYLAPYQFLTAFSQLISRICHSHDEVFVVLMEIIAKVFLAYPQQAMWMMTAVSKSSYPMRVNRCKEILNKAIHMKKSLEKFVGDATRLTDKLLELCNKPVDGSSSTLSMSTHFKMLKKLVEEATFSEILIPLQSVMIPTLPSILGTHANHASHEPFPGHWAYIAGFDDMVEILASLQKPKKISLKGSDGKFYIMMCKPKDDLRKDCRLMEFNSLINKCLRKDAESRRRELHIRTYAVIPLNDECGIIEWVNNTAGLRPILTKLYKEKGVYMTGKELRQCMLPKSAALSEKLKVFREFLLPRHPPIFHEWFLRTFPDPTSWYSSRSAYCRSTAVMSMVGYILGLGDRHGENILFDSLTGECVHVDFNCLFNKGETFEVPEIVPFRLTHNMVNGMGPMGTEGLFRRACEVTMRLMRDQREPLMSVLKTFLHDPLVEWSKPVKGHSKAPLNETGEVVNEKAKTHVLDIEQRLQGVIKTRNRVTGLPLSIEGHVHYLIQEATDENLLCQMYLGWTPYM

For `Nc1nn2cc(Cl)cnc2c1C(=O)Nc1cnccc1OCCCO` [I-O-53, 2-amino-6-chloro-N-(4-(3-hydroxypropoxy)pyridin-3-yl)pyrazolo[1,5-a]pyrimidine-3-carboxamide], the pKi (usually −log10 of the Ki, conventionally taken in molar units) under setting [1] was 6.00 to 8.00.

On to `Nc1nn2cc(F)cnc2c1C(=O)Nc1cncc(F)c1N1CCN(C(=O)CN2CCC2)CC1` [I-N-160, 2-amino-N-(4-(4-(2-(azetidin-1-yl)acetyl)piperazin-1-yl)-5-fluoropyridin-3-yl)-6-fluoropyrazolo[1,5-a]pyrimidine-3-carboxamide], for which the pKi under setting [1] is 6.00 to 8.00.

`Nc1nn2cc(Cl)cnc2c1C(=O)Nc1cnccc1OC1CC2(CNC2)C1` [I-O-72, N-(4-(2-azaspiro[3.3]heptan-6-yloxy)pyridin-3-yl)-2-amino-6-chloropyrazolo[1,5-a]pyrimidine-3-carboxamide]: under setting [1], the pKi is 6.00 to 8.00.

As to `CN1CCC(c2c(F)cncc2NC(=O)c2c(N)nn3cc(F)cnc23)CC1` [I-C-14, 2-amino-6-fluoro-N-(5-fluoro-4-(1-methylpiperidin-4-yl)pyridin-3-yl)pyrazolo[1,5-a]pyrimidine-3-carboxamide], the pKi was 5.30 to 6.00.

As to `Cc1ncnn1-c1ccncc1NC(=O)c1c(N)nn2cc(F)cnc12` [I-N-162, 2-amino-6-fluoro-N-(4-(5-methyl-1H-1,2,4-triazol-1-yl)pyridin-3-yl)pyrazolo[1,5-a]pyrimidine-3-carboxamide], the pKi under setting [1] is 6.00 to 8.00.

Regarding `Nc1nn2cc(F)cnc2c1C(=O)Nc1cnccc1N1CCN(C2COC2)C2CC21` (stereo not drawn) [I-N-31, 2-amino-6-fluoro-N-(4-(5-(oxetan-3-yl)-2,5-diazabicyclo[4.1.0]heptan-2-yl)pyridin-3-yl)pyrazolo[1,5-a]pyrimidine-3-carboxamide], under setting [1], the pKi was 5.30 to 6.00.

In the case of `Nc1nn2cc(F)cnc2c1C(=O)Nc1cncc(Cl)c1N1CCN2CCN(C3COC3)CC2C1` (stereo not drawn) [I-N-38, 2-amino-N-(5-chloro-4-(8-(oxetan-3-yl)hexahydro-1H-pyrazino[1,2-a]pyrazin-2(6H)-yl)pyridin-3-yl)-6-fluoropyrazolo[1,5-a]pyrimidine-3-carboxamide], the pKi under setting [1] was 6.00 to 8.00.

For the molecule `Nc1nn2cc(F)cnc2c1C(=O)Nc1cnccc1N1CCC(N2CCCC2=O)CC1` [I-N-230, 2-amino-6-fluoro-N-(4-(4-(2-oxopyrrolidin-1-yl)piperidin-1-yl)pyridin-3-yl)pyrazolo[1,5-a]pyrimidine-3-carboxamide], the pKi under setting [1] is 6.00 to 8.00.

In the case of `Nc1nn2cc(Cl)cnc2c1C(=O)Nc1cnccc1N1CCCC(N)C1` (stereo not drawn) [I-N-55, 2-amino-N-(4-(3-aminopiperidin-1-yl)pyridin-3-yl)-6-chloropyrazolo[1,5-a]pyrimidine-3-carboxamide], under setting [1], the pKi is 6.00 to 8.00.

On to `CCN1CCN(c2ccncc2NC(=O)c2c(N)nn3cc(F)cnc23)CC1` [I-N-17, 2-amino-N-(4-(4-ethylpiperazin-1-yl)pyridin-3-yl)-6-fluoropyrazolo[1,5-a]pyrimidine-3-carboxamide], for which the pKi under setting [1] is 6.00 to 8.00.

Regarding `CN1CCC(c2ccncc2NC(=O)c2c(N)nn3cc(C(C)(C)C#N)cnc23)CC1` [I-C-23, 2-amino-6-(2-cyanopropan-2-yl)-N-(4-(1-methylpiperidin-4-yl)pyridin-3-yl)pyrazolo[1,5-a]pyrimidine-3-carboxamide], the pKi was 5.30 to 6.00.

On to `CN1CCN(CC2CCN(c3c(F)cncc3NC(=O)c3c(N)nn4cc(F)cnc34)CC2)CC1` [I-N-150, 2-amino-6-fluoro-N-(5-fluoro-4-(4-((4-methylpiperazin-1-yl)methyl)piperidin-1-yl)pyridin-3-yl)pyrazolo[1,5-a]pyrimidine-3-carboxamide], for which the pKi under setting [1] was 6.00 to 8.00.

In the case of `Nc1nn2cc(F)cnc2c1C(=O)Nc1cncc(F)c1N1CCN2C(=O)CC[C@@H]2C1` [I-N-182, (R)-2-amino-6-fluoro-N-(5-fluoro-4-(6-oxohexahydropyrrolo[1,2-a]pyrazin-2(1H)-yl)pyridin-3-yl)pyrazolo[1,5-a]pyrimidine-3-carboxamide], the pKi under setting [1] is 6.00 to 8.00.

Consider `Nc1nn2cc(F)cnc2c1C(=O)Nc1cnccc1N1CCN(S(=O)(=O)C2CCOC2)CC1` (stereo not drawn) [I-N-179, 2-amino-6-fluoro-N-(4-(4-((tetrahydrofuran-3-yl)sulfonyl)piperazin-1-yl)pyridin-3-yl)pyrazolo[1,5-a]pyrimidine-3-carboxamide], for which, under setting [1], the pKi is 6.00 to 8.00.

As to `CC1(S(C)(=O)=O)CCN(c2ccncc2NC(=O)c2c(N)nn3cc(F)cnc23)CC1` [I-N-243, 2-amino-6-fluoro-N-(4-(4-methyl-4-(methylsulfonyl)piperidin-1-yl)pyridin-3-yl)pyrazolo[1,5-a]pyrimidine-3-carboxamide], the pKi under setting [1] is 6.00 to 8.00.

With `Nc1nn2cc(Cl)cnc2c1C(=O)Nc1cnccc1N1CCN(CC(F)(F)F)CC1` [I-N-67, 2-amino-6-chloro-N-(4-(4-(2,2,2-trifluoroethyl)piperazin-1-yl)pyridin-3-yl)pyrazolo[1,5-a]pyrimidine-3-carboxamide], the pKi under setting [1] is 6.00 to 8.00.

Take `CN1CCC[C@@H]1C(=O)N1CCN(c2c(F)cncc2NC(=O)c2c(N)nn3cc(F)cnc23)CC1` [I-N-181, (R)-2-amino-6-fluoro-N-(5-fluoro-4-(4-(1-methylpyrrolidine-2-carbonyl)piperazin-1-yl)pyridin-3-yl)pyrazolo[1,5-a]pyrimidine-3-carboxamide]: the pKi under setting [1] was 6.00 to 8.00.

For the molecule `COCCOc1ccncc1NC(=O)c1c(N)nn2cc(CC#N)cnc12` [I-O-29, 2-amino-6-(cyanomethyl)-N-(4-(2-methoxyethoxy)pyridin-3-yl)pyrazolo[1,5-a]pyrimidine-3-carboxamide], the pKi under setting [1] is greater than 8.00.

In the case of `Cc1ccncc1NC(=O)c1c(N)nn2cc(Cl)cnc12` [I-C-2, 2-amino-6-chloro-N-(4-methylpyridin-3-yl)pyrazolo[1,5-a]pyrimidine-3-carboxamide], the pKi is 5.30 to 6.00.

For `CN1CCC(NC(=O)C2CCN(c3c(F)cncc3NC(=O)c3c(N)nn4cc(F)cnc34)CC2)C1` (stereo not drawn) [I-G-24, 2-amino-6-fluoro-N-(5-fluoro-4-(4-((1-methylpyrrolidin-3-yl)carbamoyl)piperidin-1-yl)pyridin-3-yl)pyrazolo[1,5-a]pyrimidine-3-carboxamide], the pKi under setting [1] is 6.00 to 8.00.

As for `COCCN1CCN(c2c(F)cncc2NC(=O)c2c(N)nn3cc(F)cnc23)CC1` [I-N-127, 2-amino-6-fluoro-N-(5-fluoro-4-(4-(2-methoxyethyl)piperazin-1-yl)pyridin-3-yl)pyrazolo[1,5-a]pyrimidine-3-carboxamide], the pKi under setting [1] was 6.00 to 8.00.

Turning to `Nc1nn2cc(F)cnc2c1C(=O)Nc1cncc(F)c1N1CCC(C(=O)N2CCOCC2)CC1` [I-G-36, 2-amino-6-fluoro-N-(5-fluoro-4-(4-(morpholine-4-carbonyl)piperidin-1-yl)pyridin-3-yl)pyrazolo[1,5-a]pyrimidine-3-carboxamide], the pKi under setting [1] is 6.00 to 8.00.

As to `Nc1nn2cc(F)cnc2c1C(=O)Nc1cncc(F)c1N1CCN(CC(=O)N2CCC2)CC1` [I-N-228, 2-amino-N-(4-(4-(2-(azetidin-1-yl)-2-oxoethyl)piperazin-1-yl)-5-fluoropyridin-3-yl)-6-fluoropyrazolo[1,5-a]pyrimidine-3-carboxamide], under setting [1], the pKi is 6.00 to 8.00.

On to `Nc1nn2cc(F)cnc2c1C(=O)Nc1cncc(Cl)c1N1CCCC1` [I-N-281, 2-amino-N-(5-chloro-4-(pyrrolidin-1-yl)pyridin-3-yl)-6-fluoropyrazolo[1,5-a]pyrimidine-3-carboxamide], for which the pKi under setting [1] was 6.00 to 8.00.
